Reference: publication PMC12097015, “Development of MDM2‐Targeting PROTAC for Advancing Bone Regeneration” (Advanced Science, 2025)
Where two headings read alike, the source gives them in different places.

How the values were obtained:
[1] = Pharmacokinetic study in BALB/c mice; assay type: in vivo; conditions: mouse, plasma; for MRT last: read-out: MRT0–t; for MRT inf: read-out: MRT0–∞
Protocol: Pharmacokinetic (PK) studies of CL144 were conducted by Medicilon Preclinical Research (Shanghai) LLC. Six BALB/c mice were divided into two groups, and CL144 was administered by tail vein injection (iv; 1.0 mg kg^−1) or gavage (po; 10 mg kg^−1). Blood samples were collected from the submandibular vein at 0.083, 0.25, 0.5, 1, 4, and 24 h for the iv group and at 0.25, 0.5, 1, 3, 6, and 24 h for the po group. Blood samples were centrifuged at 6800 x g for 6 min at 2–8 °C within 1 h after collection and stored at ≈−80 °C. Plasma samples were analyzed by LC‐MS/MS (TQ6500+), and PK parameters were calculated using the FDA‐certified pharmacokinetic program Phoenix WinNonlin 7.0 (Pharsight, USA).

RUNX2, OCN, OPN = assay: qPCR of osteogenic differentiation marker genes in hBMSCs; assay type: cell-based, human
Protocol: Total RNA was extracted from hBMSCs treated with Nutlin‐3 or CL144, as well as from control cells, using Trizol (Invitrogen, 15596026), according to the manufacturer's instructions. cDNA was synthesized using TOPscript RT DryMIX (Enzynomics, RT200). Human gene‐specific primer sequences were used. (Used primer sequences see Table S2, Supporting Information). qPCR was conducted using the SYBR Green qPCR Master Mix (Applied biosystems, 4 309 155). Relative gene expression levels were calculated using the ΔΔCt method with GAPDH as the internal control for normalization.

In the case of `COc1ccc(C2=N[C@H](c3ccc(Cl)cc3)[C@H](c3ccc(Cl)cc3)N2C(=O)N2CCN(CC(=O)NCCCCCCCCOc3cccc4c3C(=O)N(C3CCC(=O)NC3=O)C4=O)C(=O)C2)c(OC(C)C)c1` (stereo in doubt) [CL144], the AUC(0-inf) ([1]; 1.0 mg kg^−1 (iv)) is reported as 546 ± 39 ng·h/mL, the AUC(0-t) ([1]; 1.0 mg kg^−1 (iv)) is reported as 532 ± 35 ng·h/mL and the Cmax ([1]; 1.0 mg kg^−1 (iv)) is reported as 1630 ± 111 ng/mL. The Tmax ([1]; 1.0 mg kg^−1 (iv)) was 4.98 min, the clearance ([1]; 1.0 mg kg^−1 (iv)) was 30.6 ± 2.1 mL/min/kg and the half-life ([1]; 1.0 mg kg^−1 (iv)) was 70.8 ± 6.6 min. It also gave an MRT last ([1]; 1.0 mg kg^−1 (iv)) of 16.8 ± 1.2 min, an MRT inf ([1]; 1.0 mg kg^−1 (iv)) of 25.2 ± 3.6 min and a Vd ([1]; 1.0 mg kg^−1 (iv), read-out: V ss) of 0.774 ± 0.092 L/kg. The AUC(0-t) ([1]; 1 mg kg^−1, intravenous administration) was 532 ng·h/mL, the AUC(0-inf) ([1]; 10 mg kg^−1 (po)) was 256 ± 49 ng·h/mL and the AUC(0-t) ([1]; 10 mg kg^−1 (po)) was 252 ± 44 ng·h/mL. It also gave a Cmax ([1]; 10 mg kg^−1 (po)) of 106 ± 9 ng/mL, a Tmax ([1]; 10 mg kg^−1 (po)) of 49.8 ± 17.4 min and a bioavailability ([1]; 10 mg kg^−1 (po)) of 4.74 ± 0.83%. For the same compound, the half-life ([1]; 10 mg kg^−1 (po)) was 55.8 ± 15.6 min, the MRT last ([1]; 10 mg kg^−1 (po)) was 94.8 ± 21.6 min and the MRT inf ([1]; 10 mg kg^−1 (po)) was 100 ± 27.6 min. For the same compound, the “OPN mRNA level” value (RUNX2, OCN, OPN; 10 μΜ) was “increased” and the “expression levels of RUNX2 and OCN (mRNA) compared to Nutlin‐3” value (RUNX2, OCN, OPN; same concentrations) was “significantly increased”.
